Measurements as given in ChEMBL document CHEMBL1201862, “PubChem BioAssay data set” (2004).
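1) Cells in 96-well plates. 2) Compound, 48 h, 5 concentrations. 3) Linear interpolation between surrounding doses. 4) Unreached endpoint = highest concentration. GI50 marks 50% less growth.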 Activity calls are given as the source filed them. Rule as the data show it: active = GI50 up to about 1.1 µM and inactive = higher.

How the values were obtained:
Test in all cases: NCI anticancer screen, dose series, 48 h
UACC-257 = tested on: UACC-257
IGROV-1 = tested on: IGROV-1
SR = tested on: SR
XF498 = tested on: XF498
ACHN = tested on: ACHN
DMS-273 = tested on: DMS-273
HOP-18 = tested on: HOP-18
NCI-H226 = tested on: NCI-H226
SF-268 = tested on: SF-268
SK-OV-3 = tested on: SK-OV-3
OVCAR-3 = tested on: OVCAR-3
A549 = tested on: A549
M14 = tested on: M14
SF-295 = tested on: SF-295
SK-MEL-5 = tested on: SK-MEL-5
SW-620 = tested on: SW-620
KM12 = tested on: KM12
HCC 2998 = tested on: HCC 2998
OVCAR-5 = tested on: OVCAR-5
SF-539 = tested on: SF-539
K562 = tested on: K562
SN12C = tested on: SN12C
COLO 205 = tested on: COLO 205
SNB-78 = tested on: SNB-78
RXF 393 = tested on: RXF 393
LOX IMVI = tested on: LOX IMVI
UO-31 = tested on: UO-31
U-251 = tested on: U-251
MOLT-4 = tested on: MOLT-4
SNB-19 = tested on: SNB-19
A498 = tested on: A498
HCT-116 = tested on: HCT-116
NCI-H522 = tested on: NCI-H522
EKVX = tested on: EKVX
OVCAR-8 = tested on: OVCAR-8
TK-10 = tested on: TK-10
HOP-62 = tested on: HOP-62
HOP-92 = tested on: HOP-92
LXFL 529 = tested on: LXFL 529
HL-60 = tested on: HL-60
Malme-3M = tested on: Malme-3M
NCI-H23 = tested on: NCI-H23
KM-20L2 = tested on: KM-20L2
M19-MEL = tested on: M19-MEL
SK-MEL-28 = tested on: SK-MEL-28
786-0 = tested on: 786-0
RPMI-8226 = tested on: RPMI-8226
SNB-75 = tested on: SNB-75
CAKI-1 = tested on: CAKI-1
UACC-62 = tested on: UACC-62
HT-29 = tested on: HT-29
DLD-1 = tested on: DLD-1
DMS-114 = tested on: DMS-114
NCI-H460 = tested on: NCI-H460
RXF 631 = tested on: RXF 631
OVCAR-4 = tested on: OVCAR-4
SK-MEL-2 = tested on: SK-MEL-2
HCT-15 = tested on: HCT-15
CCRF-CEM = tested on: CCRF-CEM

CS(=O)(=O)C1S(=O)(=O)OCCOS1(=O)=O
GI50 (UACC-257): > 100 µM (inactive)
GI50 (IGROV-1): > 100 µM (inactive)
GI50 (SR): > 100 µM (inactive)
GI50 (XF498): > 100 µM (inactive)
GI50 (ACHN): > 100 µM (inactive)
GI50 (DMS-273): > 100 µM (inactive)
GI50 (HOP-18): 73.6 µM (inactive)
GI50 (NCI-H226): 7.93 µM (inactive)
GI50 (SF-268): > 100 µM (inactive)
GI50 (SK-OV-3): > 100 µM (inactive)
GI50 (OVCAR-3): > 100 µM (inactive)
GI50 (A549): > 100 µM (inactive)
GI50 (M14): > 100 µM (inactive)
GI50 (SF-295): > 100 µM (inactive)
GI50 (SK-MEL-5): > 100 µM (inactive)
GI50 (SW-620): > 100 µM (inactive)
GI50 (KM12): > 100 µM (inactive)
GI50 (HCC 2998): > 100 µM (inactive)
GI50 (OVCAR-5): > 100 µM (inactive)
GI50 (SF-539): > 100 µM (inactive)
GI50 (K562): > 100 µM (inactive)
GI50 (SN12C): > 100 µM (inactive)
GI50 (COLO 205): > 100 µM (inactive)
GI50 (SNB-78): > 100 µM (inactive)
GI50 (RXF 393): > 100 µM (inactive)
GI50 (LOX IMVI): > 100 µM (inactive)
GI50 (UO-31): > 100 µM (inactive)
GI50 (U-251): > 100 µM (inactive)
GI50 (MOLT-4): > 100 µM (inactive)
GI50 (SNB-19): > 100 µM (inactive)
GI50 (A498): > 100 µM (inactive)
GI50 (HCT-116): > 100 µM (inactive)
GI50 (NCI-H522): > 100 µM (inactive)
GI50 (EKVX): > 100 µM (inactive)
GI50 (OVCAR-8): > 100 µM (inactive)
GI50 (TK-10): > 100 µM (inactive)
GI50 (HOP-62): > 100 µM (inactive)
GI50 (HOP-92): > 100 µM (inactive)
GI50 (LXFL 529): > 100 µM (inactive)
GI50 (HL-60): > 100 µM (inactive)
GI50 (Malme-3M): > 100 µM (inactive)
GI50 (NCI-H23): > 100 µM (inactive)
GI50 (KM-20L2): > 100 µM (inactive)
GI50 (M19-MEL): > 100 µM (inactive)
GI50 (SK-MEL-28): > 100 µM (inactive)
GI50 (786-0): > 100 µM (inactive)
GI50 (RPMI-8226): > 100 µM (inactive)
GI50 (SNB-75): > 100 µM (inactive)
GI50 (CAKI-1): > 100 µM (inactive)
GI50 (UACC-62): > 100 µM (inactive)
GI50 (HT-29): > 100 µM (inactive)
GI50 (DLD-1): > 100 µM (inactive)
GI50 (DMS-114): > 100 µM (inactive)
GI50 (NCI-H460): > 100 µM (inactive)
GI50 (RXF 631): > 100 µM (inactive)
GI50 (OVCAR-4): > 100 µM (inactive)

C#CCn1c(=O)[nH]c(=O)c2cccnc21
GI50 (UACC-257): > 100 µM (inactive)
GI50 (SR): > 100 µM (inactive)
GI50 (XF498): > 100 µM (inactive)
GI50 (ACHN): > 100 µM (inactive)
GI50 (DMS-273): > 100 µM (inactive)
GI50 (HOP-18): 63.5 µM (inactive)
GI50 (NCI-H226): > 100 µM (inactive)
GI50 (SF-268): > 100 µM (inactive)
GI50 (SK-OV-3): > 100 µM (inactive)
GI50 (A549): > 100 µM (inactive)
GI50 (M14): > 100 µM (inactive)
GI50 (SF-295): > 100 µM (inactive)
GI50 (SK-MEL-5): > 100 µM (inactive)
GI50 (SW-620): > 100 µM (inactive)
GI50 (KM12): > 100 µM (inactive)
GI50 (HCC 2998): > 100 µM (inactive)
GI50 (OVCAR-5): > 100 µM (inactive)
GI50 (SN12C): > 100 µM (inactive)
GI50 (COLO 205): > 100 µM (inactive)
GI50 (SNB-78): > 100 µM (inactive)
GI50 (RXF 393): > 100 µM (inactive)
GI50 (SK-MEL-2): > 100 µM (inactive)
GI50 (LOX IMVI): > 100 µM (inactive)
GI50 (U-251): > 100 µM (inactive)
GI50 (MOLT-4): > 100 µM (inactive)
GI50 (SNB-19): > 100 µM (inactive)
GI50 (HCT-15): > 100 µM
GI50 (HCT-116): > 100 µM (inactive)
GI50 (NCI-H522): > 100 µM (inactive)
GI50 (TK-10): > 100 µM (inactive)
GI50 (HOP-62): > 100 µM (inactive)
GI50 (HOP-92): > 100 µM (inactive)
GI50 (LXFL 529): > 100 µM (inactive)
GI50 (HL-60): > 100 µM (inactive)
GI50 (Malme-3M): > 100 µM (inactive)
GI50 (NCI-H23): > 100 µM (inactive)
GI50 (KM-20L2): > 100 µM (inactive)
GI50 (SK-MEL-28): > 100 µM (inactive)
GI50 (786-0): > 100 µM (inactive)
GI50 (RPMI-8226): > 100 µM (inactive)
GI50 (SNB-75): > 100 µM (inactive)
GI50 (CAKI-1): > 100 µM (inactive)
GI50 (DLD-1): > 100 µM (inactive)
GI50 (DMS-114): > 10 µM (inactive)
GI50 (RXF 631): > 100 µM (inactive)
GI50 (OVCAR-4): > 100 µM (inactive)

COc1ccc2c(c1)CCc1c(C(C)=O)c3ccccc3n1C2
GI50 (UACC-257): 15.3 µM (inactive)
GI50 (IGROV-1): 19.3 µM (inactive)
GI50 (SR): 28.7 µM (inactive)
GI50 (XF498): 12.9 µM (inactive)
GI50 (ACHN): 12 µM (inactive)
GI50 (DMS-273): 33 µM (inactive)
GI50 (HOP-18): 58.6 µM (inactive)
GI50 (SF-268): 29.1 µM (inactive)
GI50 (OVCAR-3): 12.1 µM (inactive)
GI50 (A549): 11.2 µM (inactive)
GI50 (M14): 94.6 µM (inactive)
GI50 (SF-295): 12.7 µM (inactive)
GI50 (CCRF-CEM): 63.4 µM (inactive)
GI50 (SK-MEL-5): 6.19 µM (inactive)
GI50 (SW-620): > 100 µM (inactive)
GI50 (KM12): > 100 µM (inactive)
GI50 (HCC 2998): 33.7 µM (inactive)
GI50 (OVCAR-5): > 100 µM (inactive)
GI50 (SF-539): 20.7 µM (inactive)
GI50 (K562): 6.37 µM (inactive)
GI50 (SN12C): 49.5 µM (inactive)
GI50 (COLO 205): > 100 µM (inactive)
GI50 (SNB-78): 52 µM (inactive)
GI50 (RXF 393): 22.8 µM (inactive)
GI50 (LOX IMVI): 41 µM (inactive)
GI50 (UO-31): 11.7 µM (inactive)
GI50 (U-251): 20.2 µM (inactive)
GI50 (MOLT-4): 13.4 µM (inactive)
GI50 (SNB-19): 38.5 µM (inactive)
GI50 (HCT-116): 25.8 µM (inactive)
GI50 (NCI-H522): 19.9 µM (inactive)
GI50 (OVCAR-8): 28.1 µM (inactive)
GI50 (TK-10): 60.4 µM (inactive)
GI50 (HOP-62): 26.4 µM (inactive)
GI50 (HOP-92): 20.3 µM (inactive)
GI50 (LXFL 529): 12.1 µM (inactive)
GI50 (HL-60): 11.5 µM (inactive)
GI50 (Malme-3M): 18.1 µM (inactive)
GI50 (NCI-H23): 16.5 µM (inactive)
GI50 (M19-MEL): 57.5 µM (inactive)
GI50 (SK-MEL-28): 60.3 µM (inactive)
GI50 (786-0): 31.6 µM (inactive)
GI50 (SNB-75): 33.4 µM (inactive)
GI50 (CAKI-1): 24 µM (inactive)
GI50 (UACC-62): 25.6 µM (inactive)
GI50 (HT-29): > 100 µM (inactive)
GI50 (DLD-1): 42.4 µM (inactive)
GI50 (DMS-114): 31.7 µM (inactive)
GI50 (NCI-H460): 47.3 µM (inactive)
GI50 (RXF 631): 42.1 µM (inactive)
GI50 (OVCAR-4): 28.3 µM (inactive)
